Measured values from US9040717B2, “Pyrazole-amide compounds and pharmaceutical use thereof” (JAPAN TOBACCO INC., priority 2013, dated 2015).

Key:
[1] = test system: adipose tissue PDH activity; experiment: Ex vivo PDH activation assay, adipose tissue; type: in vivo, Sprague-Dawley rats
Experimental: The action of test compound on tissue PDH activity was evaluated. NADH production was detected via p-iodonitrotetrazolium violet (INT)-coupled system to measure PDH activity.
Normal male Sprague-Dawley rats were randomly allocated to the vehicle group and the test compound groups. The vehicle (0.5% aqueous methylcellulose solution, 5 mL/kg) or the test compound was orally administered to the rats. At 5 or 20 hr after administration, the rats were anesthetized with an intraperitoneal injection of sodium pentobarbital (60 mg/kg), and liver slices and epididymal adipose tissues were collected.
To the adipose tissues were rapidly added 3 volumes of an ice-cold homogenization buffer, and the mixtures were homogenized using a Polytron homogenizer. The homogenates were centrifuged at 600×g, 4° C. for 10 min to obtain the supernatant. The supernatants were centrifuged at 16,000×g, 4° C. for 10 min to collect the precipitates. The precipitates were washed by resuspension in the homogenization buffer (1 mL) and centrifuged in the same manner. The precipitates were frozen with liquid nitrogen and stored at −80° C. as the adipose tissue mitochondrial fraction.
The mitochondrial fractions were thawed and suspended with the sample buffer (0.25 mol/L sucrose, 20 mmol/L tris(hydroxymethyl)aminomethane hydrochloride (pH 7.5), 50 mmol/L potassium chloride, and 1 mL/L 4-(1,1,3,3-tetramethylbutyl)phenyl-polyethylene glycol (Triton X-100)). Active PDH activity (PDHa activity) and total PDH activity (PDHt activity) were measured to evaluate the PDH activity. For the measurement of the PDHt activity, equal amounts of the mitochondrial suspension and the activation buffer (0.25 mol/L sucrose, 20 mmol/L tris(hydroxymethyl)aminomethane hydrochloride (pH 7.5), 50 mmol/L potassium chloride, 1 mL/L Triton X-100, 4 mmol/L calcium chloride, 40 mmol/L magnesium chloride, 10 mmol/L sodium dichloroacetate) were mixed, and the mixtures were incubated at 37° C. for 10 min. Forty microliters of the mitochondrial suspensions diluted with a sample buffer were added to a 96-well microplate for activity measurement and blank measurement. Then 180 μL of the reaction mixture (0.056 mmol/L potassium phosphate buffer (pH 7.5), 5.6 mmol/L DL-carnitine, 2.8 mmol/L NAD, 0.22 mmol/L thiamin pyrophosphate, 0.11 mmol/L Coenzyme A, 1.1 mL/L Triton X-100, 1.1 mmol/L magnesium chloride, 1.1 g/L bovine serum albumin, 0.67 mmol/L INT, 7.2 μmol/L phenazine methosulfate, 28 mmol/L sodium oxamate) was added to each well, and then 20 μL of 50 mmol/L sodium pyruvate for activity measurement or water for blank measurement were added. The mixtures were incubated at room temperature under shading. The absorbances at 500-750 nm, which were attributable to reduction of INT, the final electron acceptor, were measured using a microplate reader over time and the changes in the absorbance were calculated. The PDH activity was calculated by subtraction of the change in absorbance of the blank well from that of the activity measurement well. The percentage of the PDHa activity to the PDHt activity was calculated and taken as an index of the PDH activation.

[2] = Metabolic stability test in rat liver microsome; type: in vitro ADME
[3] = Table 2, 5 hr after oral 3 mg/kg, non-fasting SD rats, vehicle 31 ± 10, mean ± S.D. (n = 3)
[4] = Table 2, 20 hr after oral 3 mg/kg, non-fasting SD rats, vehicle 31 ± 10, mean ± S.D. (n = 3)

| Compound | PDHa activity (% of PDHt activity) ([1]; Table 3, 5 hr after oral 3 mg/kg, SD rats, vehicle 42 ± 4, mean ± S.D. (n = 3)) | PDHa activity (% of PDHt activity) ([1]; Table 3, 20 hr after oral 3 mg/kg, SD rats, vehicle 42 ± 4, mean ± S.D. (n = 3)) | Stability in liver microsome (residual ratio %) ([2]; 10 min) | Stability in liver microsome (residual ratio %) ([2]; 60 min) | PDHa activity (% of PDHt activity) [1, 3] | PDHa activity (% of PDHt activity) [1, 4] |
| --- | --- | --- | --- | --- | --- | --- |
| CC(C)(O)CCOc1cc(-c2cnn(C(C)(C)C(N)=O)c2)c2c(c1)[C@@](O)(C(F)(F)F)c1ccccc1-2 [Compound (2), 2-{4-[(9R)-9-hydroxy-2-(3-hydroxy-3-methylbutyloxy)-9-(trifluoromethyl)-9H-fluoren-4-yl]-1H-pyrazol-1-yl}-2-methylpropanamide] | 88 ± 11 % of PDHt activity | 61 ± 15 % of PDHt activity | 98.8% | 100.0% |  |  |
| CC(C)(O)CCCOc1cc(-c2cnn(C(C)(C)C(N)=O)c2)c2c(c1)[C@@](O)(C(F)(F)F)c1ccccc1-2 [Compound (3), 2-{4-[(9R)-9-hydroxy-2-(4-hydroxy-4-methylpentyloxy)-9-(trifluoromethyl)-9H-fluoren-4-yl]-1H-pyrazol-1-yl}-2-methylpropanamide] |  |  | 102.7% | 95.8% | 70 ± 9 % of PDHt activity | 42 ± 3 % of PDHt activity |
| NC(=O)Cn1cc(-c2cc(OCCC34CC5CC(CC(O)(C5)C3)C4)cc3c2-c2ccccc2[C@]3(O)C(F)(F)F)cn1 [Compound (A), 2-(4-{(9R)-9-Hydroxy-2-[2-(3-hydroxyadamantan-1-yl)ethoxy]-9-(trifluoromethyl)-9H-fluoren-4-yl}-1H-pyrazol-1-yl)acetamide] |  |  | 24.8% | 0.0% | 32 ± 14 % of PDHt activity | 24 ± 7 % of PDHt activity |
| Cn1cc(-c2cc(OCC(C)(C)O)cc3c2-c2ccccc2[C@]3(O)C(F)(F)F)cn1 [Compound (B), (9R)-2-(2-Hydroxy-2-methylpropoxy)-4-(1-methyl-1H-pyrazol-4-yl)-9-(trifluoromethyl)-9H-fluoren-9-ol] |  |  | 101.1% | 92.1% | 59 ± 5 % of PDHt activity | 30 ± 4 % of PDHt activity |
